# Measurements as given in ChEMBL document CHEMBL5696442, “Discovery of type II inhibitors of TGFβ-activated kinase 1 (TAK1) and mitogen-activated protein kinase kinase kinase kinase 2 (MAP4K2)” (J Med Chem, 2015).
# Calls of active or inactive are those of the source. The calls are words filed in the database; no cut-off is given here.
# Assays:
# [1] = biological target: T1, Mixed lineage kinase domain-like protein (Homo sapiens) (UniProt Q8NB16); assay: Inhibition of MLKL Lys1 labeling site in human A-375 cells at 5 uM by KiNativ Profiling analysis relative to control; format: cell-based
# T1 sequence (whole entry): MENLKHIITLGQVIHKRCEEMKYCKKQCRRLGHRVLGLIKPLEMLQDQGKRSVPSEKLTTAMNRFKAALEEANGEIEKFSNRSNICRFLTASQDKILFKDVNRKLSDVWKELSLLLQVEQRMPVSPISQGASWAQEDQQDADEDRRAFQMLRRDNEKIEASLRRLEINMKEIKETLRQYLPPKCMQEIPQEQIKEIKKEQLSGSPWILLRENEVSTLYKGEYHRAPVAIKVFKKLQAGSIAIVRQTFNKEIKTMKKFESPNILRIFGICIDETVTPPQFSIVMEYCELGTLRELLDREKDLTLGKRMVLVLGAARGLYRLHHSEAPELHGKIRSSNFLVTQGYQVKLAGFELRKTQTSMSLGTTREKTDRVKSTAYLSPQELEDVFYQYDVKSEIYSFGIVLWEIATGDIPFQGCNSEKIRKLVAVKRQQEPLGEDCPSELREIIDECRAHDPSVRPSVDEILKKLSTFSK
# [2] = biological target: T2, Dual specificity mitogen-activated protein kinase kinase 7 (Homo sapiens) (UniProt O14733); assay: Inhibition of MKK7 (unknown origin) at 1 uM by Ambit Kinomescan binding assay relative to control
# T2 sequence (whole entry): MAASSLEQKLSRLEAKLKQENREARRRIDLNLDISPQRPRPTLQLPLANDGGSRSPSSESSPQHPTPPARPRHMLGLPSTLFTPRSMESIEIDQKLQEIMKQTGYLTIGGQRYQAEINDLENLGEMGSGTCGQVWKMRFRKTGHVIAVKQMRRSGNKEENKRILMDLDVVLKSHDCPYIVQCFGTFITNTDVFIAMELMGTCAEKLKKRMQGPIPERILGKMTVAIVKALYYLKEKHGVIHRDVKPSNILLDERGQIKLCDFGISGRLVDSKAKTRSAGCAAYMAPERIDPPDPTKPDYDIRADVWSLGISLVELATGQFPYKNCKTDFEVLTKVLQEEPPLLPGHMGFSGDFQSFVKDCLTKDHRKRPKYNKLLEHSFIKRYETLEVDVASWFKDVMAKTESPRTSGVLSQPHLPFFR
# [3] = biological target: Serine/threonine-protein kinase PLK1 (Homo sapiens) (UniProt P53350); assay: Inhibition of PLK1 Lys2 labeling site in human A-375 cells at 0.5 uM by KiNativ Profiling analysis relative to control; format: cell-based
# [4] = biological target: Transient receptor potential cation channel subfamily M member 6 (Homo sapiens) (UniProt Q9BX84); assay: Inhibition of TRPM6 (unknown origin) at 1 uM by Ambit Kinomescan binding assay relative to control
# Sequence of Transient receptor potential cation channel subfamily M member 6 (Homo sapiens) (Q9BX84 whole entry): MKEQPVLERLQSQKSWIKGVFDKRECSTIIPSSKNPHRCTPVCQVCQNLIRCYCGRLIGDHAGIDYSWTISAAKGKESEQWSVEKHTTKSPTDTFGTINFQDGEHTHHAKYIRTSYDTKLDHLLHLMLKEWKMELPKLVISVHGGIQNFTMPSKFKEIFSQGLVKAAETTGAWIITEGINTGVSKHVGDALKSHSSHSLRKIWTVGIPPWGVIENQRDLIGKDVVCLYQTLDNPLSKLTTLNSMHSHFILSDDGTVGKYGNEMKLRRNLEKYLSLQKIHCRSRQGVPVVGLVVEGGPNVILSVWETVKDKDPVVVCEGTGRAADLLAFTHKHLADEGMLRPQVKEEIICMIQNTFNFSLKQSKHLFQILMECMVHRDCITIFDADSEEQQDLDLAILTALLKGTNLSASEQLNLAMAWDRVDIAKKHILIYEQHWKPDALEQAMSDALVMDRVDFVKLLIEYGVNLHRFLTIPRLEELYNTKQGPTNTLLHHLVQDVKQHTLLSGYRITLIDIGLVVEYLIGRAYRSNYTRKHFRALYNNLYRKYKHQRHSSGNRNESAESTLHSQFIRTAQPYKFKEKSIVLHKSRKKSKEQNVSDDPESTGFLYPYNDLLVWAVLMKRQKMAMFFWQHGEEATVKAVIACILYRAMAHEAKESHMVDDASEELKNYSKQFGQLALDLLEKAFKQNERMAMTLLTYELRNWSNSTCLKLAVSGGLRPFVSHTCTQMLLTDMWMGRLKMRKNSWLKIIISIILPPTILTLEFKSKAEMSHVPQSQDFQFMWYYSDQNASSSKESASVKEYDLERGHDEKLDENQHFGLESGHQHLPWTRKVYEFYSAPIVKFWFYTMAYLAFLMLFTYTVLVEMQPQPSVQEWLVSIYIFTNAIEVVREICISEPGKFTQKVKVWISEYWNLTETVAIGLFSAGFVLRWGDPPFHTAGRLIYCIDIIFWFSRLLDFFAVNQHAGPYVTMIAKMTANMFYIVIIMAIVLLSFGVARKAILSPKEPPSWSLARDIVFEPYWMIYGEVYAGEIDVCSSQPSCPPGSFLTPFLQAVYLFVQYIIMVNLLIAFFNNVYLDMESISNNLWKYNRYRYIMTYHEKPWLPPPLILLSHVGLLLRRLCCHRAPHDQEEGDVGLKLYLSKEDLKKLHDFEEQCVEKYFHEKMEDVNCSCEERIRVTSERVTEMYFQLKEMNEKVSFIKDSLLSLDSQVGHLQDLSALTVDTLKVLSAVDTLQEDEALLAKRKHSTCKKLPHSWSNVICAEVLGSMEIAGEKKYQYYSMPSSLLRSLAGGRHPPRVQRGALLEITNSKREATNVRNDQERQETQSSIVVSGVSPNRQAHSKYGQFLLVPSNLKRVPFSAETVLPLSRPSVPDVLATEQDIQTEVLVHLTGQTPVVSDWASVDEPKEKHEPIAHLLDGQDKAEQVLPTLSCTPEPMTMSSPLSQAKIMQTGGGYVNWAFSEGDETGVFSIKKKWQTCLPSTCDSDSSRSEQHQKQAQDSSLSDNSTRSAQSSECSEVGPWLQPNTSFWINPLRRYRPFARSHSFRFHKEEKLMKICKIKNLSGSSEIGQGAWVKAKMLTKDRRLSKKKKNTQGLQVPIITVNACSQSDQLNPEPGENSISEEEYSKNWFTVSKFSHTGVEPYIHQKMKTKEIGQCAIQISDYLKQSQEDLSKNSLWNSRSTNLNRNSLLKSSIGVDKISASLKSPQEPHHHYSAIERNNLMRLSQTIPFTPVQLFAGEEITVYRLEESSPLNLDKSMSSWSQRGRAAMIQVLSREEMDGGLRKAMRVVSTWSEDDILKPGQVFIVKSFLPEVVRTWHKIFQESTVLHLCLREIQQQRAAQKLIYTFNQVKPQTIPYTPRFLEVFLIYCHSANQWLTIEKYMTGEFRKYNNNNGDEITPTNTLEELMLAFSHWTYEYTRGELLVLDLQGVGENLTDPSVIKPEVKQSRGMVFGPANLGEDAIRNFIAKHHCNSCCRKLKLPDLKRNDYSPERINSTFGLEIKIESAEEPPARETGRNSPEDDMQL
# [5] = biological target: Serine/threonine-protein kinase PAK 1 (Homo sapiens) (UniProt Q13153); assay: Inhibition of PAK1 (unknown origin) at 1 uM by Ambit Kinomescan binding assay relative to control; values are per cent of control
# Sequence of Serine/threonine-protein kinase PAK 1 (Homo sapiens) (Q13153 whole entry, looked up): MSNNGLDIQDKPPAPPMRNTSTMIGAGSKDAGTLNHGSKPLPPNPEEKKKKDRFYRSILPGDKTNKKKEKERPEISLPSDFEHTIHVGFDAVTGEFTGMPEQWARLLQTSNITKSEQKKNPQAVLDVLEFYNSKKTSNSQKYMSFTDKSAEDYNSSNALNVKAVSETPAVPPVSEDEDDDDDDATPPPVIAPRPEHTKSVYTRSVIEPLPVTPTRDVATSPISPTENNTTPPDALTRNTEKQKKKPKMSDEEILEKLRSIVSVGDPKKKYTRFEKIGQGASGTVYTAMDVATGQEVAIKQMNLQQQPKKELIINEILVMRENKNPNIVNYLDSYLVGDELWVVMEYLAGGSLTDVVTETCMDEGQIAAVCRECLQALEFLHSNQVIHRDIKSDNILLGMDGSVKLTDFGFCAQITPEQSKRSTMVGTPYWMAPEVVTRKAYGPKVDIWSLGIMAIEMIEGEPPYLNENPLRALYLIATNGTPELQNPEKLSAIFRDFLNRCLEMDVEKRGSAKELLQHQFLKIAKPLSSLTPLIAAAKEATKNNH
# [6] = biological target: T3, Serine/threonine-protein kinase D2 (Homo sapiens) (UniProt Q9BZL6); assay: Inhibition of PRKD2 (unknown origin) at 1 uM by Ambit Kinomescan binding assay relative to control
# T3 sequence (whole entry): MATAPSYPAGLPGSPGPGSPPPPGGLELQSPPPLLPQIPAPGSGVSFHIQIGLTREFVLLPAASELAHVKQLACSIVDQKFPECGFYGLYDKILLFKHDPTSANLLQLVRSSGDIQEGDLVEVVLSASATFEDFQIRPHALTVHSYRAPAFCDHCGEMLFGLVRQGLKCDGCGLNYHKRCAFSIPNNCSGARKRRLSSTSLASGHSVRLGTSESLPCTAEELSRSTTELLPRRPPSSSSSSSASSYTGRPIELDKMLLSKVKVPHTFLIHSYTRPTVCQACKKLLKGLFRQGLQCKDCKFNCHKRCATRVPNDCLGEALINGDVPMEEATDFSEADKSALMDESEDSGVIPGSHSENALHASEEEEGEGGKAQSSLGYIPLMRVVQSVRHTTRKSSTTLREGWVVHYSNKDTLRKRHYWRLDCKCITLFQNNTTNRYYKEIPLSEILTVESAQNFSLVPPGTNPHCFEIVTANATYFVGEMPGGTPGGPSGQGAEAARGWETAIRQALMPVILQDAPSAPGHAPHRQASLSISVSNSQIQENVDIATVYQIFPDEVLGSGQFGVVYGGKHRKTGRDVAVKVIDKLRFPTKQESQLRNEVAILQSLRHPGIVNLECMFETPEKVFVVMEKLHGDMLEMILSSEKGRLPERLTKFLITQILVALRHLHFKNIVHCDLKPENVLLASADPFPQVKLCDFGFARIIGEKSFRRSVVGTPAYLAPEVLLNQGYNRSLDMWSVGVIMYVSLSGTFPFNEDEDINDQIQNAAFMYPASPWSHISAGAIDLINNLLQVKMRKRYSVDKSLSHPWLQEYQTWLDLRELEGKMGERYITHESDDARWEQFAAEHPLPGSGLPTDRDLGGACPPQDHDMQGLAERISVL
# [7] = biological target: Serine/threonine-protein kinase Nek7 (Homo sapiens) (UniProt Q8TDX7); assay: Inhibition of NEK7 (unknown origin) at 10 uM by Ambit Kinomescan binding assay
# Sequence of Serine/threonine-protein kinase Nek7 (Homo sapiens) (Q8TDX7 whole entry, looked up): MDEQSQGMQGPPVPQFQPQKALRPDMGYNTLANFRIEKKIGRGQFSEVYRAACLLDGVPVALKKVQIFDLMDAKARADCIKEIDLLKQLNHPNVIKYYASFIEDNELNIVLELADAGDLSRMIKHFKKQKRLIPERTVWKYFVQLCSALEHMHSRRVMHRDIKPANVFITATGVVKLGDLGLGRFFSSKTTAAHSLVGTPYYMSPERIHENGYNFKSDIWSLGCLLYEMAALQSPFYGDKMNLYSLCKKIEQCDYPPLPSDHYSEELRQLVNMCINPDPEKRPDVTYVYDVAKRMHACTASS
# [8] = biological target: Serine/threonine-protein kinase PAK 2 (Homo sapiens) (UniProt Q13177); assay: Inhibition of PAK2 (unknown origin) at 10 uM by Ambit Kinomescan binding assay
# [9] = biological target: Mitogen-activated protein kinase kinase kinase 20 (Homo sapiens, UniProt Q9NYL2); assay: Inhibition of ZAK Lys1 labeling site in human A-375 cells at 5 uM by KiNativ Profiling analysis relative to control; format: cell-based
# Sequence of Mitogen-activated protein kinase kinase kinase 20 (Q9NYL2 2-800 limits assumed): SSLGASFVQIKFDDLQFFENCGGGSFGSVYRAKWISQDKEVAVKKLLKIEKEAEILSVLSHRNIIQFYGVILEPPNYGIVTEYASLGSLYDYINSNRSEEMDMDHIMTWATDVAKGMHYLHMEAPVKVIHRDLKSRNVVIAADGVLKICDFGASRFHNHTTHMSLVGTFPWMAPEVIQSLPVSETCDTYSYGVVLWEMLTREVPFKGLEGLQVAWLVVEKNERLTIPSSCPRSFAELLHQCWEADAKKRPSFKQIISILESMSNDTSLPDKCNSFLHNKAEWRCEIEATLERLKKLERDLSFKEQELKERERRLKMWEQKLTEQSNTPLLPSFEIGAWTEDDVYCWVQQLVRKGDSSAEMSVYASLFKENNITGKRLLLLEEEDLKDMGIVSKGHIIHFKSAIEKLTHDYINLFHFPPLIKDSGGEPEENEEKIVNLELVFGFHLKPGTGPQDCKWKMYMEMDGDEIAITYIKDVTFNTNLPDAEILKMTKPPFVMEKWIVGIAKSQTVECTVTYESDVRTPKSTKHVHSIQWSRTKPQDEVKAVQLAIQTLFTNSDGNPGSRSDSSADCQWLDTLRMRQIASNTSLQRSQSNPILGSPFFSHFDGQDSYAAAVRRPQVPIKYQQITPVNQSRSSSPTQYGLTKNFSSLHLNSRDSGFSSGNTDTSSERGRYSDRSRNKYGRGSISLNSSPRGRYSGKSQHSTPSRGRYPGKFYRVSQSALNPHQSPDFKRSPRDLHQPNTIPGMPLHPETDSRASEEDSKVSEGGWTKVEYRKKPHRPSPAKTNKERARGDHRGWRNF
# [10] = biological target: Tyrosine-protein kinase ABL1 (Homo sapiens, UniProt P00519); assay: Inhibition of ABL Lys1 labeling site in human A-375 cells at 0.5 uM by KiNativ Profiling analysis relative to control; format: cell-based
# Sequence of Tyrosine-protein kinase ABL1 (P00519 whole entry): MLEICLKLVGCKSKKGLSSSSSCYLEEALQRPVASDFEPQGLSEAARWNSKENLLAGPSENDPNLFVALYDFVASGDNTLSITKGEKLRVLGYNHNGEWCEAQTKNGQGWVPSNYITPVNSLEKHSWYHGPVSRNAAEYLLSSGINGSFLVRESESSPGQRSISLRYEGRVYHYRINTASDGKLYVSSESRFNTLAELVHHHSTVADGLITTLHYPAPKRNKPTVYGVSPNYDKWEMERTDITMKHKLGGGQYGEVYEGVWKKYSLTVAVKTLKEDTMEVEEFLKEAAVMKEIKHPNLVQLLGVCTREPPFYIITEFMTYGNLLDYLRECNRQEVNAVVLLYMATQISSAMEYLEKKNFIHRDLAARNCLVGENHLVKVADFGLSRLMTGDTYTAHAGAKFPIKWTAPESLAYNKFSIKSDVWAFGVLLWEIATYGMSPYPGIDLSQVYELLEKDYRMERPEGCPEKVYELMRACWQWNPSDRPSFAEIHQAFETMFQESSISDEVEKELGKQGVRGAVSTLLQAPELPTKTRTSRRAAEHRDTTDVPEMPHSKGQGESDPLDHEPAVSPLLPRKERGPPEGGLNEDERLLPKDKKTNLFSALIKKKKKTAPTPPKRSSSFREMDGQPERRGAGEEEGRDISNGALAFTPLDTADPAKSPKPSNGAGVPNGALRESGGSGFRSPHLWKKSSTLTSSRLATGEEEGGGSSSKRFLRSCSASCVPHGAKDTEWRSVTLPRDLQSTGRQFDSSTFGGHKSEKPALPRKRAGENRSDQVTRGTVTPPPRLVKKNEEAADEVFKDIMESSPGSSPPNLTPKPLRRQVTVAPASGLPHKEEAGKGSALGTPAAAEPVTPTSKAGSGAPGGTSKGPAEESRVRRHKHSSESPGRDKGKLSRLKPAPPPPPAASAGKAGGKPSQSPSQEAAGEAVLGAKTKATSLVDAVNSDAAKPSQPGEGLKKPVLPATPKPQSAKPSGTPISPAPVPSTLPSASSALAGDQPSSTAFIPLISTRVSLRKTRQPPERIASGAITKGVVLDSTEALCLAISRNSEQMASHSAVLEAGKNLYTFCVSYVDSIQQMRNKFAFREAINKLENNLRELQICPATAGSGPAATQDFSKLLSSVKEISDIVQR
# [11] = biological target: Angiopoietin-1 receptor (Homo sapiens) (UniProt Q02763); assay: Inhibition of TIE2 (unknown origin) at 10 uM by Ambit Kinomescan binding assay relative to control; values are per cent of control
# [12] = biological target: Focal adhesion kinase 1 (Homo sapiens) (UniProt Q05397); assay: Inhibition of FAK K1 labeling site in human Huh-7 cells at 1 uM by KiNativ Profiling analysis relative to control; format: cell-based
# [13] = biological target: Cyclin-dependent kinase 1 (Homo sapiens) (UniProt P06493); assay: Inhibition of CDC2 Lys1 labeling site in human Huh-7 cell lysate at 1 uM by KiNativ Profiling analysis relative to control; format: subcellular
# Sequence of Cyclin-dependent kinase 1 (Homo sapiens) (P06493 whole entry, looked up): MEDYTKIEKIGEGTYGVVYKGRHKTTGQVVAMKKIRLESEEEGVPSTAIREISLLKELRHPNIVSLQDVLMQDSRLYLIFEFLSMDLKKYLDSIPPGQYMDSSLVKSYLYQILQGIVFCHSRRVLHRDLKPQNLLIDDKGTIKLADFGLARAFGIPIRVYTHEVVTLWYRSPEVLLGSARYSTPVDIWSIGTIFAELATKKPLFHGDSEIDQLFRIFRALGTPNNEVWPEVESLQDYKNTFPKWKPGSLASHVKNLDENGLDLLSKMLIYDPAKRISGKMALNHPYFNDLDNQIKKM
# [14] = biological target: Hepatocyte growth factor receptor (Homo sapiens) (UniProt P08581); assay: Inhibition of MET ACT labeling site in human Huh-7 cell lysate at 1 uM by KiNativ Profiling analysis relative to control; format: subcellular
# [15] = biological target: Tyrosine-protein kinase Yes (Homo sapiens) (UniProt P07947); assay: Inhibition of YES ACT labeling site in human Huh-7 cell lysate at 1 uM by KiNativ Profiling analysis relative to control; format: subcellular
structure (smiles),measurement,setting,value
CCN1CCN(Cc2ccc(NC(=O)c3ccc(C)c(/C=C/c4cnc5[nH]ccc5c4OC)c3)cc2C(F)(F)F)CC1,inhibition,[1],3.2%
same,inhibition,[2],39%
same,inhibition,[3],13.2%
same,inhibition,[4],100%
same,residual activity,[5],100%
same,inhibition,[6],81%
CCN1CCN(Cc2ccc(NC(=O)c3ccc(C)c(Oc4ccnc5[nH]ccc45)c3)cc2C(F)(F)F)CC1,inhibition,[7],inactive
same,inhibition,[8],inactive
same,inhibition,[9],98.1%
same,inhibition,[10],85.5%
same,residual activity,[11],0%
same,inhibition,[12],32%
CNc1cc(Oc2cc(C(=O)Nc3cc(N4CCN(C)CC4)cc(C(F)(F)F)c3)ccc2C)ncn1,inhibition,[13],21.5%
same,inhibition,[14],2%
same,inhibition,[15],22%
